Measurements published in article PMC4286281, “Profiling of the Tox21 Chemical Collection for Mitochondrial Function to Identify Compounds that Acutely Decrease Mitochondrial Membrane Potential” (Environmental Health Perspectives, 2014).
Counter-ions that a name gives are not always drawn. Like-named read-outs stand apart in the source and are kept apart here.

Tested on: mitochondrial membrane potential (MMP) in HepG2 cells
Assay: qHTS mitochondrial membrane potential (MMP) assay with m-MPI dye, multiplexed with CellTiter-Glo cell viability
Type: cell-based, human
Settings: for Emax: read-out: Efficacy; for MMP assay activity outcome (active antagonist / inactive / inconclusive): call from triplicate runs, multichannel readout and cell viability
[1] = Homo sapiens, HepG2, 1 h, read-out: Potency
[2] = Homo sapiens, HepG2 cells, 1 hr treatment, ratio 590 nm/535 nm, read-out: IC50 in the MMP assay (decrease of MMP)
[3] = Table S4, 20 most potent active compounds for the MMP screen, HepG2, 1 hr
[4] = Table S4, 20 most potent active compounds for the MMP screen, HepG2, 1 hr, read-out: Potency
[5] = HepG2 cells, 1 hr treatment, ratio 590 nm/535 nm, read-out: IC50 in the MMP assay (decrease of MMP)

Work on `Nc1ccc(N)c2c1C(=O)c1ccccc1C2=O` [1,4-Diaminoanthraquinone] yielded an Emax (Homo sapiens, HepG2, 1 h) of 82% and an IC50 [1] of 33.1 nM.
Work on `O=C1c2c(O)ccc([N+](=O)[O-])c2C(=O)c2c([N+](=O)[O-])ccc(O)c21` [1,8-Dihydroxy-4,5-dinitroanthraquinone] yielded an Efficacy of 86.4% and an IC50 (read-out: Potency) of 73.4 nM.
With `O=C(c1ccccc1O)c1ccccc1O` [2,2´-dihydroxybenzophenone] the IC50 [2] was 14100 nM.
In the case of `Oc1c(Cl)c(Cl)c(Cl)c(Cl)c1Cl` [2,3,4,5,6-pentachlorophenol], the “MMP assay activity outcome (active antagonist / inactive / inconclusive)” value (HepG2 cells, 1 hr treatment) is reported as “active”.
Work on `NNc1nc(-c2ccc(N)cc2)cs1` [2-Hydrazino-4-(4-aminophenyl) thiazole] yielded an Efficacy [3] of 82.5% and an IC50 [4] of 63.5 nM.
For `COc1ccc(C(=O)c2ccccc2)c(O)c1` [2-hydroxy-4-methoxybenzophenone], the “MMP assay activity outcome (active antagonist / inactive / inconclusive)” value (HepG2 cells, 1 hr treatment) was “not active”.
With `O=C(c1ccccc1)c1ccccc1O` [2-hydroxybenzophenone] the “MMP assay activity outcome (active antagonist / inactive / inconclusive)” value (HepG2 cells, 1 hr treatment) was “inactive”.
`O=C(c1ccccc1)c1cccc(O)c1` [3-hydroxybenzophenone] gave an IC50 [2] of 27700 nM.
`O=C(c1ccc(Cl)cc1)c1ccc(Cl)cc1` [4,4´-dichlorobenzophenone] was tested, and the “MMP assay activity outcome (active antagonist / inactive / inconclusive)” value (HepG2 cells, 1 hr treatment) was “inactive”.
In the case of `O=C(c1ccc(O)cc1)c1ccc(O)cc1` [4,4´-dihydoxybenzophenone], the “MMP assay activity outcome (active antagonist / inactive / inconclusive)” value (HepG2 cells, 1 hr treatment) is reported as “inconclusive”.
In the case of `CC(C)(c1ccccc1)c1ccc(O)cc1` [4-(1-methyl-1-phenylethyl)phenol], the “MMP assay activity outcome (active antagonist / inactive / inconclusive)” value (HepG2 cells, 1 hr treatment) is reported as “active”.
`Nc1ccc(O)cc1` [4-aminophenol] was tested, and the “MMP assay activity outcome (active antagonist / inactive / inconclusive)” value (HepG2 cells, 1 hr treatment) was “active”.
Compound `O=C(c1ccccc1)c1ccc(O)cc1` [4-hydroxybenzophenone] has an IC50 [2] of 41300 nM.
`Cc1ccc(C(=O)c2ccccc2)cc1` [4-methylbenzophenone] was tested, and the “MMP assay activity outcome (active antagonist / inactive / inconclusive)” value (HepG2 cells, 1 hr treatment) was “inactive”.
With `O=C(c1ccccc1)c1ccccc1` [Benzophenone] the “MMP assay activity outcome (active antagonist / inactive / inconclusive)” value (HepG2 cells, 1 hr treatment) was “inactive”.
`CCC[CH2][Sn]([CH2]CCC)([CH2]CCC)[O][Sn]([CH2]CCC)([CH2]CCC)[CH2]CCC` [Bis(tributyltin)oxide] was tested, and the Efficacy was 112.1%, the “Potency rank in the MMP screen” value was “among the most potent compounds” and the IC50 (read-out: Potency) was 91.1 nM.
With `Cl.N=C1C=CC(=C(c2ccc(N)cc2)c2ccc(N)cc2)C=C1` [C.I. Basic red 9 monohydrochloride] the “Potency rank in the MMP screen” value (HepG2 cells, 1 hr treatment) was “among the most potent compounds”, the Efficacy [3] was 95.3% and the IC50 [4] was 77 nM.
`CCOCn1c(-c2ccc(Cl)cc2)c(C#N)c(Br)c1C(F)(F)F` [Chlorfenapyr] showed an Emax (Homo sapiens, HepG2, 1 h) of 105% and an IC50 [1] of 74.1 nM.
For `CCN1/C(=C/C=C/C=C/c2sc3ccccc3[n+]2CC)Sc2ccccc21` [Dithiazanine iodide], the Emax (Homo sapiens, HepG2, 1 h) was 85.4% and the IC50 [1] was 95.8 nM.
In the case of `N#CC(C#N)=NNc1ccc(OC(F)(F)F)cc1` [FCCP, carbonyl cyanide 4-(trifluoromethoxy) phenylhydrazone, reference compound], the IC50 (Homo sapiens, HepG2, 1 h, read-out: IC50 of the positive control, decrease of MMP (mean ± SD)) is reported as 110 ± 70 nM.
`O=C1OC2(c3ccc(O)cc3Oc3cc(O)ccc32)c2ccccc21` [Fluorescein] showed an Emax (Homo sapiens, HepG2, 1 h) of 112% and an IC50 [1] of 105 nM.
`CN(C)c1ccc(C(=C2C=CC(=[N+](C)C)C=C2)c2ccc(N(C)C)cc2)cc1` [Gentian violet] gave an Emax (Homo sapiens, HepG2, 1 h) of 91.9% and an IC50 [1] of 78.8 nM.
With `O=C(Nc1ccc([N+](=O)[O-])cc1Cl)c1cc(Cl)ccc1O` [Niclosamide, reference compound] the Emax (Homo sapiens, HepG2, 1 h) was 97.7% and the IC50 [1] was 26.3 nM.
For `COc1cccc2c1C(=O)c1c(O)c3c(c(O)c1C2=O)C[C@@](O)(C(=O)CO)C[C@@H]3O[C@H]1C[C@H](N)[C@H](O[C@@H]2CCCCO2)[C@H](C)O1` [Pirarubicin, reference compound], the IC50 [2] was 600 nM.
`C[C@@H]1O[C@@H](O[C@@H]2C=C3CC[C@@H]4[C@H](CC[C@]5(C)[C@@H](c6ccc(=O)oc6)CC[C@]45O)[C@@]3(C)CC2)[C@H](O)[C@H](O)[C@H]1O` [Proscillaridin, reference compound] was tested, and the “Potency rank in the MMP screen” value (HepG2 cells, 1 hr treatment) was “among the most potent compounds”, the Emax (Homo sapiens, HepG2, 1 h) was 72.4% and the IC50 [1] was 86.8 nM.
For `CCC[CH2][Sn]([Cl])([CH2]CCC)[CH2]CCC` [Tributyltin chloride], the Efficacy was 96.9%, the “Potency rank in the MMP screen” value was “among the most potent compounds” and the IC50 (read-out: Potency) was 107 nM.
`CC(=O)[O][Sn]([c]1ccccc1)([c]1ccccc1)[c]1ccccc1` [Triphenyltin acetate] was tested, and the Efficacy was 98.7%, the “Potency rank in the MMP screen” value (HepG2 cells, 1 hr treatment) was “among the most potent compounds” and the IC50 (read-out: Potency) was 117 nM.
`[OH-].c1cc[c]([Sn+]([c]2ccccc2)[c]2ccccc2)cc1` [Triphenyltin hydroxide] was tested, and the Efficacy was 94.7%, the “Potency rank in the MMP screen” value (HepG2 cells, 1 hr treatment) was “among the most potent compounds” and the IC50 (read-out: Potency) was 122 nM.
In the case of `CC[C@@]1(O)C[C@H](O[C@H]2C[C@H](N(C)C)[C@H](O[C@H]3C[C@H](O)[C@H](O[C@H]4CCC(=O)[C@H](C)O4)[C@H](C)O3)[C@H](C)O2)c2c(cc3c(c2O)C(=O)c2c(O)cccc2C3=O)[C@H]1C(=O)OC` [aclarubicin hydrochloride, reference compound], the “MMP assay activity outcome (active antagonist / inactive / inconclusive)” value (HepG2 cells, 1 hr treatment) is reported as “active”.
With `COc1cccc2c1C(=O)c1c(O)c3c(c(O)c1C2=O)C[C@@](O)(C(=O)CO)C[C@@H]3O[C@H]1C[C@H](N)[C@H](O)[C@H](C)O1` [adriamycin hydrochloride, reference compound] the “MMP assay activity outcome (active antagonist / inactive / inconclusive)” value (HepG2 cells, 1 hr treatment) was “inactive”.
`ClC1=C(Cl)C2(Cl)C3C4C=CC(C4)C3C1(Cl)C2(Cl)Cl` (stereo not shown) [aldrin] was tested, and the “MMP assay activity outcome (active antagonist / inactive / inconclusive)” value (HepG2 cells, 1 hr treatment) was “active as antagonists”.
For `CCN=C1C=CC(=C(c2ccc(N(CC)CC)cc2)c2ccc(N(CC)CC)cc2)c2ccccc21.Cl` [basic blue 7, Basic blue 7], the “Potency rank in the MMP screen” value (HepG2 cells, 1 hr treatment) was “among the most potent compounds”, the IC50 [5] was 18.5 nM and the Efficacy [3] was 86.6%.
`CCC/C=C/C=C/C(=O)O[C@H]1/C(=C/C(=O)OC)C[C@H]2C[C@H]([C@@H](C)O)OC(=O)C[C@H](O)C[C@@H]3C[C@H](OC(C)=O)C(C)(C)[C@](O)(C[C@@H]4C/C(=C/C(=O)OC)C[C@H](/C=C/C(C)(C)[C@]1(O)O2)O4)O3` [bryostatin 1, Bryostatin 1, reference compound] gave an Emax (Homo sapiens, HepG2, 1 h) of 105%, an IC50 [1] of 9.58 nM and an IC50 [2] of 9.6 nM.
With `CCN1/C(=C/C=C/c2ccc3ccccc3[n+]2CC)C=Cc2ccccc21.[I-]` [carbocyanine, Carbocyanine] the Efficacy [3] was 90.7% and the IC50 [4] was 14.7 nM.
`O=C(O)C1C(C(=O)O)C2(Cl)C(Cl)=C(Cl)C1(Cl)C2(Cl)Cl` (stereo not shown) [chlorendic acid] was tested, and the “MMP assay activity outcome (active antagonist / inactive / inconclusive)” value (HepG2 cells, 1 hr treatment) was “inactive”.
In the case of `CO[C@@H]1[C@H](O)C[C@@H](O[C@@H]2C[C@H](Oc3cc4cc5c(c(O)c4c(O)c3C)C(=O)[C@@H](O[C@H]3C[C@@H](O[C@H]4C[C@@H](O[C@H]6C[C@](C)(O)[C@@H](OC(C)=O)[C@H](C)O6)[C@H](O)[C@@H](C)O4)[C@H](O)[C@@H](C)O3)[C@H]([C@H](OC)C(=O)[C@@H](O)[C@@H](C)O)C5)O[C@H](C)[C@@H]2OC(C)=O)O[C@@H]1C` [chromomycin A3], the “MMP assay activity outcome (active antagonist / inactive / inconclusive)” value (HepG2 cells, 1 hr treatment) is reported as “active”.
`O=[N+]([O-])c1ccc(O)c([N+](=O)[O-])c1` [dinitrophenol, reference compound] was tested, and the “MMP assay activity outcome (active antagonist / inactive / inconclusive)” value (HepG2 cells, 1 hr treatment) was “inconclusive antagonist (cytotoxic)”.
Compound `CCCCCCCCCCCCOC(=O)c1ccc(O)cc1` [dodecylparaben] has an IC50 [5] of 4200 nM.
`COC(=O)c1ccc(O)cc1` [methylparaben] was tested, and the “MMP assay activity outcome (active antagonist / inactive / inconclusive)” value (HepG2 cells, 1 hr treatment) was “inactive”.
With `COc1ccc(C(=O)c2ccc(C)cc2)c(O)c1` [mexenone] the “MMP assay activity outcome (active antagonist / inactive / inconclusive)” value (HepG2 cells, 1 hr treatment) was “not active”.
With `C[C@@H]1O[C@@H](O[C@H]2C[C@@H](O)[C@]3(CO)[C@H]4[C@H](O)C[C@]5(C)[C@@H](C6=CC(=O)OC6)CC[C@]5(O)[C@@H]4CC[C@]3(O)C2)[C@H](O)[C@H](O)[C@H]1O` [ouabain, reference compound] the “Potency rank in the MMP screen” value (HepG2 cells, 1 hr treatment) was “among the most potent compounds”.
`COc1ccc(Cc2nccc3cc(OC)c(OC)cc23)cc1OC` [papaverine, reference compound] was tested, and the “MMP assay activity outcome (active antagonist / inactive / inconclusive)” value (HepG2 cells, 1 hr treatment) was “inconclusive antagonist (cytotoxic)”.
Work on `CCCCCOC(=O)c1ccc(O)cc1` [pentylparaben] yielded an IC50 [2] of 8700 nM.
`CCCOC(=O)c1ccc(O)cc1` [propylparaben] was tested, and the IC50 [2] was 38600 nM.
With `C=C(C)[C@H]1Cc2c(ccc3c2O[C@@H]2COc4cc(OC)c(OC)cc4[C@@H]2C3=O)O1` [rotenone, reference compound] the “MMP assay activity outcome (active antagonist / inactive / inconclusive)” value (HepG2 cells, 1 hr treatment) was “inconclusive antagonist (cytotoxic)”.
`CC1(C)C(C(Cl)Cl)C2(Cl)C(Cl)C(Cl)C1(Cl)C2(Cl)Cl` (stereo not shown) [toxaphene] was tested, and the “MMP assay activity outcome (active antagonist / inactive / inconclusive)” value (HepG2 cells, 1 hr treatment) was “active as antagonists”.
`CCCCC(=O)OCC(=O)[C@]1(O)Cc2c(O)c3c(c(O)c2[C@@H](O[C@H]2C[C@H](NC(=O)C(F)(F)F)[C@H](O)[C@H](C)O2)C1)C(=O)c1c(OC)cccc1C3=O` [valrubicin, reference compound] was tested, and the IC50 [2] was 1900 nM.
Methyl violet was tested, and the Efficacy was 121.5%, the “Potency rank in the MMP screen” value (HepG2 cells, 1 hr treatment) was “among the most potent compounds” and the IC50 (read-out: Potency) was 65.3 nM.
For plicamycin [reference compound], the “MMP assay activity outcome (active antagonist / inactive / inconclusive)” value (HepG2 cells, 1 hr treatment) was “active”.
